Data taken from PMC12298815 (Pharmaceutics, 2025).
Where two headings read alike, the source gives them in different places.

Experiments:
[1] = In vivo pharmacokinetics in rats; settings: rat; for AUC(0-inf): read-out: AUCinf of DT; for AUC(0-t): read-out: AUClast of DT; for half-life: read-out: T1/2 of DT (converted)
Procedure: Pharmacokinetic parameters were calculated using a non-compartmental analysis model with WinNonlin® software version 5.3 (Pharsight Corp., Mountain View, CA, USA). All quantitative data are presented as mean ± standard deviation (SD) or standard error of the mean (SEM), as indicated. Statistical analyses were performed using one-way analysis of variance (ANOVA) to assess differences among groups, followed by Tukey’s post hoc test for multiple comparisons. A p-value less than 0.05 (p < 0.05) was considered statistically significant.

rat intestinal segments = test: In situ single-pass rat intestinal perfusion (Peff); format: in vivo, Sprague–Dawley rats; settings: low-permeability reference, 100 µg/mL in perfusion buffer
Procedure: The in situ single-pass intestinal effective permeability (Peff) of AT/DT dispersed in 0.5% DMSO and AT/DT-NE#E was evaluated in rats. Sprague–Dawley rats were selected due to their well-characterized gastrointestinal physiology, suitability for serial perfusion sampling, and widespread use in oral absorption and permeability studies. Prior to the procedure, the rats were fasted for 12–16 h with free access to water. Anesthesia was induced via intramuscular injection of a tiletamine·HCl–zolazepam mixture (1:1, w/w; 40 mg/kg). With the animals in a supine position, a midline longitudinal incision was made to expose the abdominal cavity. […]
After a 30 min equilibration period to establish steady-state conditions, outlet perfusates were collected at 15 min intervals over a period of 120 min. […] It was perfused under identical conditions, and fluorescence was measured at excitation/emission wavelengths of 494/512 nm using a multimode microplate reader (PerkinElmer).
Body temperature was maintained throughout the experiment using heated pads and a heat lamp. At the end of the study, the length and radius of each perfused intestinal segment were carefully measured without stretching. […]
The outlet concentrations of AT and DT were quantified via HPLC as described previously. […]

Cmax ([1]; plasma, IV, DT 5 mg/kg) [µg/mL]	AUC(0-inf) ([1]; plasma, IV, DT 5 mg/kg) [µg·h/mL]	AUC(0-t) ([1]; plasma, IV, DT 5 mg/kg) [µg·h/mL]	half-life ([1]; plasma, IV, DT 5 mg/kg) [h]	Tmax ([1]; plasma, oral, DT 10 mg/kg) [h]	bioavailability ([1]; plasma, oral, DT 10 mg/kg) [%]	AUC(0-inf) ([1]; plasma, oral, DT 10 mg/kg) [µg·h/mL]	AUC(0-t) ([1]; plasma, oral, DT 10 mg/kg) [µg·h/mL]	half-life ([1]; plasma, oral, DT 10 mg/kg) [h]	Cmax of DT ([1]; oral, DT 10 mg/kg) [µg/mL]	Peff (rat intestinal segments)	SMILES
0.479 ± 0.0453	4.19 ± 0.264	1.45 ± 0.109	8.33 ± 7.84	8	7.22 ± 0.924	0.264 ± 0.0383	0.21 ± 0.0268	8.67 ± 0.881	0.021 ± 0.00517	–	CC(=O)O[C@@]12CO[C@@H]1C[C@H](O)[C@@]1(C)C(=O)[C@H](O)C3=C(C)[C@@H](OC(=O)[C@H](O)[C@@H](NC(=O)OC(C)(C)C)c4ccccc4)C[C@@](O)([C@@H](OC(=O)c4ccccc4)[C@H]21)C3(C)C [DT, Docetaxel]
–	–	–	–	–	–	–	–	–	–	0.001 ± 0.002 ×10^−4 cm/s	O=C1OC2(c3ccc(O)cc3Oc3cc(O)ccc32)c2ccccc21 [fluorescein]
